Assays:
[1] = test system: Veillonella atypica PK1910/Streptococcus oralis SO34; test: reversal of coaggregation, visual score; assay type: cell-based; conditions: pair PK1910/SO34; sugar 200 mM; water score 3; scale 0 no visible to 4 maximum coaggregation
Method: (§1) Fifteen oral isolates, including both early colonizers (Streptococcus and Actinomyces) and late colonizers (Fusobacterium, Porphyromonas, Prevotella, Veillonella, Capnocytophaga, and Actinobacillus), were tested for their ability to coaggregate with each other, followed by testing for the reversal of coaggregation by the addition of D-tagatose. Bacterial strains used were of human gingival crevice origin. The coaggregation was examined visually by a scoring system ranging from 0 for no visible coaggregation to 4 for maximum coaggregation [Cisar J. O., Kolenbrander P. E., and McIntire F. C., “Specificity of coaggregation reactions between human oral streptococci and strains of Actinomyces viscosus or Actinomyces naeslundii”, Infect. Immun., 24:742–752. 1979]. D-Tagatose, at a concentration of less than 750 mM, completely reversed the coaggregation of 17 (60%) of 28 strong coaggregating pairs (with a coaggregation score of 2 or higher) tested. […] These D-tagatose sensitive coaggregations were D-galactose reversible as well.
(§2) Pairs of various species of oral bacteria were tested for coaggregation, and for reversal of coaggregation when D-tagatose or D-galactose was administered.

[2] = test system: Actinomyces naeslundii PK29/Streptococcus oralis C104; test: reversal of coaggregation, visual score; assay type: cell-based; conditions: pair PK29/C104; sugar 750 mM; water score 4; scale 0 no visible to 4 maximum coaggregation
Method: as §1, §2

[3] = test system: Veillonella atypica PK1910/Streptococcus oralis C104; test: reversal of coaggregation, visual score; assay type: cell-based; conditions: pair PK1910/C104; sugar 200 mM; water score 3; scale 0 no visible to 4 maximum coaggregation
Method: as §1, §2

[4] = test system: Streptococcus morbillorum PK509/Streptococcus oralis C104; test: reversal of coaggregation, visual score; assay type: cell-based; conditions: pair PK509/C104; sugar 750 mM; water score 3; scale 0 no visible to 4 maximum coaggregation
Method: as §1, §2

[5] = test system: Prevotella loescheii PK1295/Streptococcus mitis J22; test: reversal of coaggregation, visual score; assay type: cell-based; conditions: pair PK1295/J22; sugar 750 mM; water score 4; scale 0 no visible to 4 maximum coaggregation
Method: as §1, §2

[6] = test system: Fusobacterium nucleatum PK1594/Actinobacillus actinomycetemcomitans JP2; test: reversal of coaggregation, visual score; assay type: cell-based; conditions: pair PK1594/JP2; sugar 600 mM; water score 3; scale 0 no visible to 4 maximum coaggregation
Method: as §1, §2

[7] = test system: Fusobacterium nucleatum PK1594/Veillonella atypica PK1910; test: reversal of coaggregation, visual score; assay type: cell-based; conditions: pair PK1594/PK1910; sugar 200 mM; water score 3; scale 0 no visible to 4 maximum coaggregation
Method: as §1, §2

[8] = test system: Fusobacterium nucleatum PK1594/Porphyromonas gingivalis PK1924; test: reversal of coaggregation, visual score; assay type: cell-based; conditions: pair PK1594/PK1924; sugar 400 mM; water score 4; scale 0 no visible to 4 maximum coaggregation
Method: as §1, §2

[9] = test system: Streptococcus morbillorum PK509/Veillonella atypica PK1910; test: reversal of coaggregation, visual score; assay type: cell-based; conditions: pair PK509/PK1910; sugar 400 mM; water score 2; scale 0 no visible to 4 maximum coaggregation
Method: as §1, §2

[10] = test system: Actinomyces naeslundii PK29/Streptococcus oralis SO34; test: reversal of coaggregation, visual score; assay type: cell-based; conditions: pair PK29/SO34; sugar 750 mM; water score 4; scale 0 no visible to 4 maximum coaggregation
Method: as §1, §2

[11] = test system: Streptococcus morbillorum PK509/Prevotella loescheii PK1295; test: reversal of coaggregation, visual score; assay type: cell-based; conditions: pair PK509/PK1295; sugar 600 mM; water score 2; scale 0 no visible to 4 maximum coaggregation
Method: as §1, §2

[12] = test system: Streptococcus morbillorum PK509/Streptococcus oralis SO34; test: reversal of coaggregation, visual score; assay type: cell-based; conditions: pair PK509/SO34; sugar 400 mM; water score 2; scale 0 no visible to 4 maximum coaggregation
Method: as §1, §2

[13] = test system: Prevotella loescheii PK1295/Streptococcus oralis SO34; test: reversal of coaggregation, visual score; assay type: cell-based; conditions: pair PK1295/SO34; sugar 750 mM; water score 4; scale 0 no visible to 4 maximum coaggregation
Method: as §1, §2

[14] = test system: Prevotella loescheii PK1295/Streptococcus oralis C104; test: reversal of coaggregation, visual score; assay type: cell-based; conditions: pair PK1295/C104; sugar 750 mM; water score 4; scale 0 no visible to 4 maximum coaggregation
Method: as §1, §2

[15] = test system: F. nucleatum PK1594 and P. gingivalis PK1924; test: phase-contrast photomicrographs of coaggregation; assay type: cell-based, Fusobacterium nucleatum; Porphyromonas gingivalis; conditions: 400 mM final concentration
[16] = test system: Actinomyces naeslundii PK947/Streptococcus mitis J22; test: reversal of coaggregation, visual score; assay type: cell-based; conditions: pair PK947/J22; sugar 200 mM; water score 2; scale 0 no visible to 4 maximum coaggregation
Method: as §1, §2

[17] = test system: Actinomyces naeslundii PK29/Streptococcus morbillorum PK509; test: reversal of coaggregation, visual score; assay type: cell-based; conditions: pair PK29/PK509; sugar 200 mM; water score 2; scale 0 no visible to 4 maximum coaggregation
Method: as §1, §2

[18] = test system: Actinomyces naeslundii PK947/Streptococcus oralis C104; test: reversal of coaggregation, visual score; assay type: cell-based; conditions: pair PK947/C104; sugar 200 mM; water score 2; scale 0 no visible to 4 maximum coaggregation
Method: as §1, §2

[19] = test system: Actinomyces naeslundii PK29/Streptococcus mitis J22; test: reversal of coaggregation, visual score; assay type: cell-based; conditions: pair PK29/J22; sugar 750 mM; water score 4; scale 0 no visible to 4 maximum coaggregation
Method: as §1, §2

[20] = test system: Actinomyces naeslundii PK947/Streptococcus oralis SO34; test: reversal of coaggregation, visual score; assay type: cell-based; conditions: pair PK947/SO34; sugar 200 mM; water score 3; scale 0 no visible to 4 maximum coaggregation
Method: as §1, §2

[21] = test system: coaggregating pairs of oral isolates (early and late colonizers); test: reversal of coaggregation among fifteen oral isolates (overall); assay type: cell-based, bacterial strains of human gingival crevice origin
Method: as §1, §2

SMILES: OC[C@@H](O)[C@@H](O)[C@H](O)[C@@H](O)CO [D-Sorbitol]
- coaggregation score [1]: 1
- coaggregation score [2]: 4
- coaggregation score [3]: 1
- coaggregation score [4]: 1
- coaggregation score [5]: 2
- coaggregation score [6]: 2
- coaggregation score [7]: 1
- coaggregation score [8]: 3
- coaggregation score [9]: 0
- coaggregation score [10]: 4
- coaggregation score [11]: 0
- coaggregation score [12]: 1
- coaggregation score [13]: 1
- coaggregation score [14]: 2
- dissociation of coaggregate clumps [15]: did not dissociate the clumps
- coaggregation score [16]: 2
- coaggregation score [17]: 2
- coaggregation score [18]: 1
- coaggregation score [19]: 4
- coaggregation score [20]: 2
- plaque reversibility, comparison of Table 2 ([21]; D-tagatose and D-sorbitol at somewhat higher concentrations than D-galactose): markedly inferior
- effect on the coaggregating pairs tested ([21]; in contrast to D-tagatose): little or no effect

Reference: patent US7189351B2, “D-tagatose as an anti-biofilm agent” (priority 2001, dated 2007)
